Assay results taken from US20120083522A1, “MODULATION OF INFLAMMATORY RESPONSES BY FACTOR XI” (Isis Pharmaceuitcals, inc., priority 2009, published 2012).
In the oligonucleotide strings, read from the 5' end, every base follows the letter of its sugar. An asterisk marks phosphorothioate; unmarked linkages are phosphodiester. Other units and linkages are bracketed, terminal groups are in braces. A string of capitals states the bases alone. e = 2'-O-(2-methoxyethyl) (MOE); [5mC] = 5-methylcytosine; d = 2'-deoxy (DNA)

Assays:
murine Factor XI mRNA = test: In vivo antisense inhibition of murine Factor XI: liver RNA analysis (Example 10); settings: BALB/c mice, relative to PBS control
Description: Several antisense oligonucleotides targeted to murine Factor XI mRNA (GENBANK Accession No. NM_028066.1, incorporated herein as SEQ ID NO: 6) showing statistically significant dose-dependent inhibition from the in vitro study were evaluated in vivo. BALB/c mice were treated with ISIS 404057 ([…], target start site 487, incorporated herein as SEQ ID NO: 10) and ISIS 404071 ([…], target start site 869, incorporated herein as SEQ ID NO: 11).
BALB/c mice were injected with 5 mg/kg, 10 mg/kg, 25 mg/kg, or 50 mg/kg of ISIS 404057 or ISIS 404071 twice a week for 3 weeks. A control group of mice was injected with phosphate buffered saline (PBS) twice a week for 3 weeks. Mice were sacrificed 5 days after receiving the last dose. Whole liver was harvested for RNA analysis and plasma was collected for protein analysis.
RNA was extracted from liver tissue for real-time PCR analysis of Factor XI. […] Results are presented as percent inhibition of Factor XI, relative to control.

P-selectin = test: Colitis Study C: serum P-selectin; format: in vivo, mice
Description: The effect of antisense inhibition of Factor XI on serum P-selectin levels was evaluated in this study. DSS administration led to increase in P-selectin levels which was reduced by treatment with ISIS 404071.

Factor XI mRNA = test: Colitis Study E: Factor XI mRNA levels; format: in vivo, Swiss Webb mice; settings: compared to untreated PBS control; for % inhibition of Factor XI mRNA levels: DSS-treated mice, 40 mpk
Description: (§1) Two groups 8 Swiss Webb mice were dosed with 40 mg/kg of ISIS 404071 injected subcutaneously twice a week for 3 weeks. Two control groups of 8 Swiss Webb mice were dosed with PBS subcutaneously twice a week for 3 weeks. Both the ASO treated groups and one of the control groups were then given 4% DSS in distilled water for 7 days ad libitum. One of the ASO and DSS treated groups was also given intravenous injections of 20 μg of recombinant human Factor XI protein (Haematologic Technologies Inc.) for 7 consecutive days, starting the day before DSS treatment. Mice were sacrificed at the end of the study on day 7 after DSS was administered.

[1] = system: thrombin-antithrombin (TAT) complexes; test: Colitis Study E: TAT levels; format: in vivo, Swiss Webb mice; settings: for TAT levels: colon, DSS-treated mice, day 7, 40 mpk
Description: as §1
Mice with dextran sodium sulfate (DSS)-induced colitis have elevated level of thrombin-antithrombin (TAT) complexes in blood (Anthoni, C. et al., J. Exp. Med. 204: 1595-1601, 2007) and is also observed in patients with ulcerative colitis (Kume, K. et al., Intern Med. 2007. 46: 1323-9). The effect of antisense inhibition of Factor XI on TAT levels in the […] was evaluated (Siemens Healthcare Diagnostics, Deerfield, Ill.) at the end of the study on day 7 after DSS was administered and the results are presented in Table 38.

[2] = system: OVA/alum-induced asthma model; test: OVA-induced asthma model: BAL eosinophil recruitment (Example 13); format: in vivo, BALB/c mice
Description: The effect of antisense oligonucleotide inhibition of Factor XI and its role in ameliorating asthma was evaluated in an OVA/alum-induced asthma model. Administration of ovalbumin to animals is a well known method to induce […] and has been previously described by Henderson et al. (J. Exp. Med., 1996, 184: 1483-1494).
The mice were divided into four treatment groups of 5 mice each. One group received subcutaneous injections of ISIS 404071 at a dose of 50 mg/kg twice a week for 4 weeks. One group of mice received subcutaneous injections of control oligonucleotide, ISIS 421208, which is a mismatch oligonucleotide sequence of ISIS 404071, at a dose of 50 mg/kg twice a week for 4 weeks. Two groups of mice received subcutaneous injections of PBS twice a week for 4 weeks. One PBS group remained untreated and served as the control group. The second PBS group and both the oligonucleotide treated groups were injected with OVA/alum on days 0 and 14 and nebulized with OVA in PBS on days 24, 25, and 26. The first OVA application served to sensitize the mice against OVA while the second was a challenge application to provoke an asthmatic reaction. Two days following the final dose, the mice were euthanized, bronchial lavage (BAL) was collected and analyses done.
Bronchial asthma, even in its mild form, is characterized by local infiltration and activation of inflammatory and immunoeffector cells, including T lymphocytes, macrophages, eosinophils, and mast cells (Smith D. L. et al., Am. Rev. Respir. Dis. 1993. 148: 523-532). The effect of treatment with ISIS 404071 on bronchoalveolar lavage (BAL) eosinophil recruitment was assessed. BAL cells were stained with hemotoxylin and eosin (H&E). The results are presented in Table 49 as a percentage of total cells in BAL.

[3] = plus human recombinant FXI 20 ug/mouse/day

**Q.** What does the source list for “TGGTAATCCACTTTCAGAGG (eT*eG*eG*eT*eA*dA*dT*d[5mC]*d[5mC]*dA*d[5mC]*dT*dT*dT*d[5mC]*eA*eG*eA*eG*eG) [ISIS 404071, 5-10-5 MOE gapmer targeting murine Factor XI, target start site 869]”?
**A.** % inhibition (murine Factor XI mRNA; 5 mg/kg twice a week for 3 weeks): 72%; % inhibition (murine Factor XI mRNA; 10 mg/kg twice a week for 3 weeks): 82%; % inhibition (murine Factor XI mRNA; 25 mg/kg twice a week for 3 weeks): 93%; % inhibition (murine Factor XI mRNA; 50 mg/kg twice a week for 3 weeks): 96%; P-selectin levels (in words) (P-selectin): reduced; P-selectin (P-selectin; DSS-induced colitis mice): 83 ng/mL; Factor XI levels (in words) (Factor XI mRNA; Colitis Study E, 40 mg/kg): significantly decreased; % inhibition of Factor XI mRNA levels (Factor XI mRNA; no human recombinant FXI): 82%; % inhibition of Factor XI mRNA levels (Factor XI mRNA; [3]): 83%; TAT levels (in words) ([1]; Colitis Study E, day 7): decreased; TAT levels ([1]; no human recombinant FXI): 0.1 ng/mg protein; TAT levels [1, 3]: 0.8 ng/mg protein; BAL eosinophil recruitment (in words) [2]: decreased the eosinophil recruitment; Eosinophils ([2]; percentage of total cells in BAL, 50 mg/kg s.c. twice a week for 4 weeks): 32%
